Experiments:
[1] = tested on: LL/2 tumours and lung metastases; experiment: syngeneic Lewis Lung Carcinoma (LL/2) tumour growth and spontaneous metastasis model; type: in vivo, mice
Protocol: (§1) In the orthotopic Hep3b2.1-7 human liver cancer model, treatment of mice (n=10) began 14 days after inoculation of 2.5 × 10^6 cells. […] To initiate tumour xenografts, MDA-MB-231, PC3, Cal27 and HepG2 cells were injected s.c. into nude mice (n=8) at 4, 5, 2 and 2 × 10^7 cells ml^−1, respectively. […] In the B16F0 lung metastasis model, 2 × 10^5 cells were injected via the tail vein of C57Bl6 mice (n=8). […] Surface lung macrometastases were counted for each group (n=9) upon study termination. In the intrasplenic HT-29 xenograft model, 1 × 10^6 cells in 100 μl were injected into the spleen. […] Solid tumours were measured in two dimensions (length and width) and the tumour volume (cm^3) was calculated using the equation: V=length × width^2 × π/6. The anti-tumour activity was expressed as percent tumour growth inhibition (%TGI). Further details are available in Supplementary Methods. […]
efficacy/PK study) using either a once or twice weekly dosing schedule (see figure legends for dose schedules in each study) for up to three weeks. […]
In the LL/2 mouse model, treatment of mice commenced on the day of inoculation (Day 0). Mice inoculated subcutaneously were treated with either Vehicle Control […]
once weekly or Sorafenib (60mg/kg, once daily, p.o.). The treatments were continued for three weeks. The lungs were excised from all mice at the time of culling for metastasis […]
count determination. […]
In relevant models, solid tumours were measured in two dimensions (length and width) and the tumour volume (mm3) calculated using the equation V = length × width2 × π/6.The anti-tumour activity was assessed by the comparison of the mean tumour volume of the treated groups to the mean tumour volume of the control group and expressed as the percent Tumour Growth Inhibition (TGI) using the equation:
%TGI = (1-((VendPG545 - VstartPG545) / (VendControl - VstartControl)))*100 VendPG545 = Ending Tumour Volume of PG545-treated animal
VstartPG545 = Starting Tumour Volume of PG545-treated animal
VendControl = Ending Tumour Volume of Control animal
VstartControl = Starting Tumour Volume of Control animal […]
After collection, 0.2 mL of […]
whole blood was added to a glass scintillation vial to which 1 mL Solvable was added.
Samples were incubated for one hour at 55-60°C. 0.1 mL of 0.1 M EDTA-di-sodium salt solution and 0.3 mL to 0.5 mL of 30% hydrogen peroxide in 0.1 mL aliquots were added to the sample. Samples were gently agitated between additions to allow reaction foaming to subside. Samples were incubated for 30 minutes at room temperature. Vials were capped tightly and incubated again at 55 – 60 °C fo r 1 hour. Samples were cooled to room temperature and 15 mL of ULTIMA Gold added.
For tumour samples, 100 mg of tissue was placed in a 20 mL glass scintillation vial and 2 mL of Solvable added. The samples were incubated at 50 - 60 °C for 1 hour with occasional swirling. Samples were cooled to room temperature and for tumours, 0.3 mL of 30% hydrogen peroxide in three aliquots of 0.1 mL were added. The samples were again incubated at 50 - 60 °C for 1 hour with occasional swirling. Tumours samples were […]

B16 = experiment: in vitro cytotoxicity (LC50); type: cell-based; conditions: read-out: LC50 (concentration lethal to 50% of cells)
B16F0 lung metastases = experiment: B16F0 experimental lung metastasis model; type: in vivo, C57Bl6 mice; conditions: 20 mg kg^−1
Protocol: as §1
(§2) antibody. […]
(§3) staining. For quantification, three independent visual fields (20x magnification) were chosen and positive stained spots or vessels with identifiable lumen were counted.
(§4) Angiogenesis inhibition and induction were calculated using the equations: […]
(§5) regimen both before and after tumour cell inoculation (days -6, -3, 0, +3, +6) or only after tumour cell inoculation (days 0, +3, +6). B16 cell (2x105) were inoculated via tail vein injections and mice were culled and assessed for lung metastases on day 12. […]

coagulation = tested on: coagulation; parameters: method as in Dredge et al, 2010; conditions: compared with PI-88 or earlier PG500 series compounds; ref Dredge et al, 2010; cited from earlier work
[2] = toxicity / toxicology studies; type: in vivo
MDA-MB-231 tumours = experiment: MDA-MB-231 breast xenograft model; type: in vivo, nude mice
Protocol: as §1, §2, §3, §4, §5

CC(C)CCC[C@@H](C)[C@H]1CCC2C3CCC4C[C@@H](O[C@@H]5O[C@H](COS(=O)(=O)[O-])[C@@H](O[C@H]6O[C@H](COS(=O)(=O)[O-])[C@@H](O[C@H]7O[C@H](COS(=O)(=O)[O-])[C@@H](O[C@H]8O[C@H](COS(=O)(=O)[O-])[C@@H](OS(=O)(=O)[O-])[C@H](OS(=O)(=O)[O-])[C@H]8OS(=O)(=O)[O-])[C@H](OS(=O)(=O)[O-])[C@H]7OS(=O)(=O)[O-])[C@H](OS(=O)(=O)[O-])[C@H]6OS(=O)(=O)[O-])[C@H](OS(=O)(=O)[O-])[C@H]5OS(=O)(=O)[O-])CC[C@]4(C)C3CC[C@@]21C.[Na+].[Na+].[Na+].[Na+].[Na+].[Na+].[Na+].[Na+].[Na+].[Na+].[Na+].[Na+].[Na+] (stereo partly drawn) [PG545]
TGI (primary tumour) ([1]; 20 mg kg^−1 once-weekly): 46%
TGI / inhibition (lung metastases) ([1]; 20 mg kg^−1 once-weekly): 96%
TGI (lung metastases) ([1]; 20 mg kg^−1 single dose): 67%
TGI (primary tumour) ([1]; 20 mg kg^−1 single dose): 15%
TGI (lung metastases) ([1]; 40 mg kg^−1 once-weekly): 67%
TGI (primary tumour) ([1]; 40 mg kg^−1 once-weekly): 57%
TGI (primary tumour) ([1]; 40 mg kg^−1 single dose): 33%
CC50 (B16): > 200 µM
TGI (lung metastases) (B16F0 lung metastases; days 0, +3, +6): 62%
TGI (lung metastases) (B16F0 lung metastases; days −6, −3, 0, +3, +6): 99%
anti-coagulant properties (coagulation): mild anti-coagulant properties
activated partial thromboplastin time ([2]; high doses, toxicology studies, reversible (data not shown)): increased activated partial thromboplastin time
body weight loss in other species ([2]; toxicity studies (data not shown)): did not lead to significant body weight loss
TGI (MDA-MB-231 tumours; 30 mg kg^−1 once-weekly s.c.): 69%
TGI (MDA-MB-231 tumours; 30 mg kg^−1 twice-weekly s.c.): 59%

From PMC3049593 (British Journal of Cancer, 2011)
